Laboratory results from PubChem BioAssay (NCI).
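Tested at 5 concentrations; 48 h exposure; 96-well plates; endpoints linearly interpolated, else capped at highest concentration. The concentration for 50% growth inhibition is given as GI50. TGI: concentration producing complete growth inhibition.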

Legend:
Test in all cases: NCI tumour cell line growth inhibition, 48 h
A549 NSCLC = system: A549 NSCLC
NCI-H226 lung = system: NCI-H226 lung
HL-60(TB) leukemia = system: HL-60(TB) leukemia
UACC-62 melanoma = system: UACC-62 melanoma
SF-539 CNS = system: SF-539 CNS
MCF7 breast = system: MCF7 breast
MOLT-4 leukemia = system: MOLT-4 leukemia
NCI-H23 lung = system: NCI-H23 lung
UO-31 renal = system: UO-31 renal
KM12 colon = system: KM12 colon
UACC-257 melanoma = system: UACC-257 melanoma
NCI/ADR-RES ovarian = system: NCI/ADR-RES ovarian
SK-MEL-28 melanoma = system: SK-MEL-28 melanoma
786-0 renal = system: 786-0 renal
HOP-92 NSCLC = system: HOP-92 NSCLC
NCI-H460 lung = system: NCI-H460 lung
SW-620 colon = system: SW-620 colon
SK-MEL-5 melanoma = system: SK-MEL-5 melanoma
EKVX NSCLC = system: EKVX NSCLC
OVCAR-3 ovarian = system: OVCAR-3 ovarian
K-562 leukemia = system: K-562 leukemia
MDA-MB-231 breast = system: MDA-MB-231 breast
OVCAR-5 ovarian = system: OVCAR-5 ovarian
DU-145 prostate = system: DU-145 prostate
SF-295 CNS = system: SF-295 CNS
SN12C renal = system: SN12C renal
MALME-3M melanoma = system: MALME-3M melanoma
LOX IMVI melanoma = system: LOX IMVI melanoma
A498 renal = system: A498 renal
T-47D breast = system: T-47D breast
MDA-MB-435 = system: MDA-MB-435
SNB-19 CNS = system: SNB-19 CNS
HCT-15 colon = system: HCT-15 colon
BT-549 breast = system: BT-549 breast
HCT-116 colon = system: HCT-116 colon
RXF 393 renal = system: RXF 393 renal
CAKI-1 renal = system: CAKI-1 renal
SNB-75 CNS = system: SNB-75 CNS
NCI-H522 lung = system: NCI-H522 lung
RPMI-8226 leukemia = system: RPMI-8226 leukemia
U251 CNS = system: U251 CNS
OVCAR-8 ovarian = system: OVCAR-8 ovarian
COLO 205 colon = system: COLO 205 colon
HOP-62 NSCLC = system: HOP-62 NSCLC
HCC-2998 colon = system: HCC-2998 colon
HS 578T breast = system: HS 578T breast
SK-OV-3 ovarian = system: SK-OV-3 ovarian
PC-3 prostate = system: PC-3 prostate
IGROV1 ovarian = system: IGROV1 ovarian
TK-10 renal = system: TK-10 renal
M14 melanoma = system: M14 melanoma
SF-268 CNS = system: SF-268 CNS
SK-MEL-2 melanoma = system: SK-MEL-2 melanoma
OVCAR-4 ovarian = system: OVCAR-4 ovarian
CCRF-CEM leukemia = system: CCRF-CEM leukemia
ACHN renal = system: ACHN renal

Clc1ccc2[nH]cc(-c3nc(-c4c[nH]c5ncccc45)cs3)c2c1
GI50 (A549 NSCLC): 2.94 µM | TGI (A549 NSCLC): 62.4 µM | GI50 (NCI-H226 lung): 3.69 µM | TGI (NCI-H226 lung): 22.2 µM | GI50 (HL-60(TB) leukemia): 2.89 µM | TGI (HL-60(TB) leukemia): 45.6 µM | GI50 (UACC-62 melanoma): 4 µM | TGI (UACC-62 melanoma): 16.5 µM | GI50 (SF-539 CNS): 4.97 µM | TGI (SF-539 CNS): 21.2 µM | GI50 (MCF7 breast): 2.46 µM | TGI (MCF7 breast): 16.5 µM | GI50 (MOLT-4 leukemia): 2.73 µM | TGI (MOLT-4 leukemia): 25.6 µM | GI50 (NCI-H23 lung): 3.34 µM | TGI (NCI-H23 lung): 20.5 µM | GI50 (UO-31 renal): 1.36 µM | TGI (UO-31 renal): 28.2 µM | GI50 (KM12 colon): 3.17 µM | TGI (KM12 colon): 12.2 µM | GI50 (UACC-257 melanoma): 2.56 µM | TGI (UACC-257 melanoma): 6.78 µM | GI50 (NCI/ADR-RES ovarian): 3.09 µM | TGI (NCI/ADR-RES ovarian): 16.9 µM | GI50 (SK-MEL-28 melanoma): 6.43 µM | TGI (SK-MEL-28 melanoma): 20.1 µM | GI50 (786-0 renal): 2.34 µM | TGI (786-0 renal): 5.89 µM | GI50 (HOP-92 NSCLC): 2.24 µM | TGI (HOP-92 NSCLC): 8.6 µM | GI50 (NCI-H460 lung): 2.56 µM | TGI (NCI-H460 lung): 9.15 µM | GI50 (SW-620 colon): 3.08 µM | TGI (SW-620 colon): 11.6 µM | GI50 (SK-MEL-5 melanoma): 2.98 µM | TGI (SK-MEL-5 melanoma): 12.5 µM | GI50 (EKVX NSCLC): 2.16 µM | TGI (EKVX NSCLC): 22.3 µM | GI50 (OVCAR-3 ovarian): 6.69 µM | TGI (OVCAR-3 ovarian): 34.1 µM | GI50 (K-562 leukemia): 2.42 µM | TGI (K-562 leukemia): > 100 µM | GI50 (MDA-MB-231 breast): 2.2 µM | TGI (MDA-MB-231 breast): 17.1 µM | GI50 (OVCAR-5 ovarian): 5.63 µM | TGI (OVCAR-5 ovarian): 59.5 µM | GI50 (DU-145 prostate): 4.23 µM | TGI (DU-145 prostate): 21.4 µM | GI50 (SF-295 CNS): 2.74 µM | TGI (SF-295 CNS): 7.66 µM | GI50 (SN12C renal): 4.78 µM | TGI (SN12C renal): 20.9 µM | GI50 (MALME-3M melanoma): 5.17 µM | TGI (MALME-3M melanoma): 19 µM | GI50 (LOX IMVI melanoma): 2.71 µM | TGI (LOX IMVI melanoma): 12.1 µM | GI50 (A498 renal): 2.08 µM | TGI (A498 renal): 10.4 µM | GI50 (T-47D breast): 4.88 µM | TGI (T-47D breast): 33.7 µM | GI50 (MDA-MB-435): 3.44 µM | TGI (MDA-MB-435): 14.8 µM | GI50 (SNB-19 CNS): 5.97 µM | TGI (SNB-19 CNS): 43.9 µM | GI50 (HCT-15 colon): 2.6 µM | TGI (HCT-15 colon): 7.9 µM | GI50 (BT-549 breast): 4.85 µM | TGI (BT-549 breast): 17.1 µM | GI50 (HCT-116 colon): 3.23 µM | TGI (HCT-116 colon): 13.7 µM | GI50 (RXF 393 renal): 2.69 µM | TGI (RXF 393 renal): 11.4 µM | GI50 (CAKI-1 renal): 1.73 µM | TGI (CAKI-1 renal): 11.2 µM | GI50 (SNB-75 CNS): 3.25 µM | TGI (SNB-75 CNS): 35.3 µM | GI50 (NCI-H522 lung): 2.73 µM | TGI (NCI-H522 lung): 13.7 µM | GI50 (RPMI-8226 leukemia): 3.34 µM | TGI (RPMI-8226 leukemia): 77.1 µM | GI50 (U251 CNS): 3.17 µM | TGI (U251 CNS): 13.2 µM | GI50 (OVCAR-8 ovarian): 3.87 µM | TGI (OVCAR-8 ovarian): 20.8 µM | GI50 (COLO 205 colon): 1.73 µM | TGI (COLO 205 colon): 13.3 µM | GI50 (HOP-62 NSCLC): 5.2 µM | TGI (HOP-62 NSCLC): 27.3 µM | GI50 (HCC-2998 colon): 4.63 µM | TGI (HCC-2998 colon): 21.8 µM | GI50 (HS 578T breast): 7.59 µM | TGI (HS 578T breast): > 100 µM | GI50 (SK-OV-3 ovarian): 6.16 µM | TGI (SK-OV-3 ovarian): 39 µM | GI50 (PC-3 prostate): 3.5 µM | TGI (PC-3 prostate): 28 µM | GI50 (IGROV1 ovarian): 3.04 µM | TGI (IGROV1 ovarian): 28.6 µM | GI50 (TK-10 renal): 4.71 µM | TGI (TK-10 renal): 38.1 µM | GI50 (M14 melanoma): 3.2 µM | TGI (M14 melanoma): 11.1 µM | GI50 (SF-268 CNS): 5.06 µM | TGI (SF-268 CNS): 32.4 µM | GI50 (SK-MEL-2 melanoma): 6.51 µM | TGI (SK-MEL-2 melanoma): 23.7 µM | GI50 (OVCAR-4 ovarian): 2.85 µM | TGI (OVCAR-4 ovarian): 36.5 µM | GI50 (CCRF-CEM leukemia): 4.14 µM | TGI (CCRF-CEM leukemia): > 100 µM | GI50 (ACHN renal): 2.82 µM | TGI (ACHN renal): > 100 µM
